Experimental data reported in patent publication US9943500B2, “Methods of treating topical microbial infections” (LUODA PHARMA PTY LIMITED, priority 2013, dated 2018).

What was measured:
[1] = test system: ATCC 49775 reference strain; test: Microdilution time-kill assay (optical density); conditions: 48 hour period; one, four and eight times the MIC
Method: Time-kill assays were performed according to the M26-A guidelines of the CLSI, with modifications. The test compounds and ampicillin were serial diluted in CAMHB across the rows of a 96 well plate and a bacterial suspension was prepared and added in the same manner as the MIC testing. The 96 well plates were then incubated at 37° C. for 48 hours being removed at specific time points and OD for the positive control wells as well as one, four and eight times the MIC of the compound specific to the strain being tested were assessed using a spectrophotometer at a wavelength of 600 nm. The time points assessed were 0, 1, 2, 4, 8, 12, 24 and 48 hours after the addition of the bacterial suspension to the wells. Each test compound was tested in triplicate while ampicillin was tested in duplicate and this test was independently repeated. […] One strain from each of the categories of Staphylococcus in the isolate collection (methicillin-sensitive, methicillin resistant and coagulase negative) were selected as well as the ATCC reference strain for comparison. These strains were strains MSS 1, MSS 11, MRSA 9 and the ATCC 49775 reference strain.

[2] = test system: Staphylococcus aureus; test: Skin wound infection model in mice, topical ointment (Example 5); assay type: in vivo; conditions: LP1369 ointment 20 mg/g, 11 treatments
Text: Preliminary studies prior to the conduct to the current study established a new method of skin infection arising from a detailed study of the models mentioned above. Briefly, study mice are anaesthetised, a patch of dorsal skin is clipped to reveal the skin and a circular area of skin is removed with a hand held punch, leaving a wound on the dorsum with a central cavity. The wound is infected with a known number of the challenge organism. Approximately four to six hours after infection, the wound is either treated topically with a vehicle formulation or an active formulation. The infected skin wound is retreated every 12 hours for a total of 11 treatments. Mice are humanely euthanased, the area of the original infected wound is dissected and removed and its bacterial content quantified by standard microbiologic tests. In this way, the change in bacterial concentration due to treatment with the active formulation can be readily determined by examining the reduction in bacterial burden compared with the vehicle control.
Fresh cultures of bacteria were grown on Sheep Blood Agar at 37° C. for 16-18 hours. […] The density of the suspension was checked by measuring absorbance at 600 nm, using a spectrophotometer with saline as a blank, to confirm the target density at a reading of approximately 0.100, consistent with a bacterial density of 2.5×10^8 CFU/ml. […]

[3] = test system: ATCC 49775 reference strain; test: Macrodilution time-kill assay (viable counts); conditions: 24 hours; all concentrations tested
Method: Due to the detection limit of the OD measurements, the time-kill assays were also performed in macrodilution. In 15 mL tubes, 9 mL volumes of the test compounds in CAMHB were prepared at one, four and eight times the MIC concentration and 9 mL volumes of ampicillin were prepared in CAMHB at one and four times the MIC. 1 mL of a 4 to 5×10^6 bacterial suspension (as prepared for MIC testing) was added to each of the tubes as well as a growth control tube containing only 9 mL of CAMHB. These tubes were incubated at 37° C. in an orbital shaker rotating at 100 rpm for 24 hours. At 0, 1, 4, 8, 12 and 24 hours after addition of the bacteria, 100 μL samples were removed from each tube and serial diluted in 9.1 g/L saline solution. The dilutions were then plated in duplicate onto plate count agar and incubated for 24 hours at 37° C. After incubation, viable counts were obtained from the number of colonies visible on the agar and these were used to calculate the number of CFU/mL at each time point. For the macrodilution time-kill analysis, only the ATCC 49775 reference strain and MRSA 9 were assessed in order to further investigate the antibacterial activity against methicillin-resistant strains. These macrodilution time-kill assays were independently repeated and bactericidal activity was defined as a ≥3 log decrease in the number of CFU/mL.

[4] = test system: red blood cells; test: Eukaryotic cell toxicity testing, erythrocyte haemolysis; assay type: cell-based; conditions: 2% blood cell solution, one hour at 37° C.
Method: Erythrocyte haemolysis was used in order to test the toxicity of all five compounds to eukaryotic cells. Blood samples were washed using 9.1 g/L saline solution and centrifuged at 2500 rpm for 10 minutes. This process was repeated until cellular debris and partially lysed cells were removed from solution. 2 mL of the remaining blood cells were suspended in 98 mL of 9.1 g/L saline solution to produce a 2% blood cell solution, which was dispensed in 90 μL volumes into the wells of a 96 well plate. The compound solutions as well as chloramphenicol were prepared from stock solution to a concentration of 256 μg/mL (as described above). Chloramphenicol was used as a negative control for erythrocyte lysis while a ready to use solution of amphotericin B was used as a positive control. 90 μL of the compounds and controls were added to the final well in different rows. These compounds were serially diluted across the row in order to test the different concentrations of antimicrobials. Wells containing only 2% blood solution were also used to assess variation between readings from different columns on the 96 well plates. These tests were incubated at 37° C. for one hour and then assessed for lysis both visually and using a microplate reader to measure optical density at 600 nm wavelengths. Each test was performed in duplicate and then repeated in quadruplicate in order to ensure accuracy.

SMILES: CC[C@@H](C(=O)[C@@H](C)[C@@H](O)[C@H](C)CCc1ccc(C)c(O)c1C(=O)O)[C@H]1O[C@](CC)([C@H]2CC[C@](O)(CC)[C@H](C)O2)C[C@@H]1C [LP 1369, Lasalocid]
- growth (optical density) compared to growth control [1]: prevented the growth
- decrease in bacterial load compared to vehicle control mice [2]: statistically significant
- reduction of the bacterial population ([2]; every 12 hours, versus vehicle): greater than 99%
- decrease in the number of viable bacteria [3]: < 3 log10
- concentration at which lysis was most visually evident [4]: 64000 ng/mL
- concentration range in which some lysis of cells was observed [4]: 32000 to 128000 ng/mL
